Drawing on ChEMBL document CHEMBL3044739, “Synthesis and cytotoxicity of novel N-sulfonyl-1,2,3,4-tetrahydroisoquinoline thiosemicarbazone derivatives” (Med Chem Res, 2013), this text covers IC50 for 18 compounds.

Common to all, as to type: functional, cell-based
A short description of test [1]: Cytotoxicity against Homo sapiens (human) HuCCa1 cells assessed as survival after 3 days by crystal violet staining. Particulars: HuCC-A1, 72 h.
For the next test, the system named is A549. Kind of test: Cytotoxicity against Homo sapiens (human) A549 cells assessed as survival after 3 days by crystal violet staining. Particulars: A549, 72 h.
Another test has as its system MOLT-3. Kind of test: Cytotoxicity against Homo sapiens (human) MOLT3 cells assessed as survival after 3 days by crystal violet staining. The note with it: MOLT-3, 72 h.
A further test has as its system HepG2. Kind of test: Cytotoxicity against Homo sapiens (human) HepG2 cells assessed as survival after 3 days by crystal violet staining. Particulars: HepG2, 72 h.

The structures appear in SMILES notation. Values after ≈ are worked out from the molar mass of the structure shown. Where only a bound is given, the exact number is not on record here.

Regarding `COc1cc2c(cc1OC)C(/C(=N/NC(N)=S)c1ccccc1)N(S(=O)(=O)c1ccc(Cl)cc1)CC2` (centres undefined), the IC50 in test [1] was more than 50 µg/mL; in the test with A549, more than 50 µg/mL; with MOLT-3, 5.03 µg/mL (≈ 9.23 µM); with HepG2 it was more than 50 µg/mL.

Consider `COc1cc2c(cc1OC)C(C(=O)c1ccccc1)N(S(=O)(=O)c1ccc(C)cc1)CC2` (centres undefined), for which the IC50 (in test [1]; in the test on A549; in the test on MOLT-3; in the test on HepG2) was more than 50 µg/mL in each case.

Take `C/C(=N\NC(N)=S)C1c2ccccc2CCN1S(=O)(=O)c1ccc(C)cc1` (centres undefined): the IC50 in test [1] is more than 50 µg/mL; with A549, more than 50 µg/mL; in the test with MOLT-3 it was 19 µg/mL (≈ 47.2 µM); with HepG2 it was 46 µg/mL (≈ 114 µM).

Consider `C/C(=N\NC(N)=S)C1c2ccccc2CCN1S(=O)(=O)c1cccc([N+](=O)[O-])c1` (centres undefined), for which the half-maximal inhibitory concentration (IC50) in test [1] was more than 50 µg/mL; with A549 it was more than 50 µg/mL; with MOLT-3 it was 18.1 µg/mL (≈ 41.7 µM); in the test on HepG2, 38.5 µg/mL (≈ 88.8 µM).

`COc1cc2c(cc1OC)C(/C(=N/NC(N)=S)c1ccccc1)N(S(=O)(=O)c1ccc([N+](=O)[O-])cc1)CC2` (centres undefined): the IC50 (in test [1]; in the test on A549; in the test with MOLT-3; with HepG2) was more than 50 µg/mL in each case.

`COc1ccc(S(=O)(=O)N2CCc3ccccc3C2/C(=N/NC(N)=S)c2ccccc2)cc1` (centres undefined): the IC50 in test [1] is more than 50 µg/mL; in the test with A549, more than 50 µg/mL; in the test on MOLT-3 it was 8.44 µg/mL (≈ 17.6 µM); in the test with HepG2, more than 50 µg/mL.

Take `COc1cc2c(cc1OC)C(/C(=N/NC(N)=S)c1ccccc1)N(S(=O)(=O)c1ccc(C)cc1)CC2` (centres undefined): the IC50 in test [1] is more than 50 µg/mL; in the test on A549, more than 50 µg/mL; with MOLT-3 it was 8.45 µg/mL (≈ 16.1 µM); in the test on HepG2 it was 21.5 µg/mL (≈ 41 µM).

For `C/C(=N\NC(N)=S)C1c2ccccc2CCN1S(=O)(=O)c1ccc([N+](=O)[O-])cc1` (centres undefined), the concentration for half-maximal inhibition (IC50) was more than 50 µg/mL in test [1], more than 50 µg/mL in the test with A549, 18.2 µg/mL (≈ 42.1 µM) in the test on MOLT-3 and 32.3 µg/mL (≈ 74.6 µM) in the test with HepG2.

Turning to `COc1ccc(S(=O)(=O)N2CCc3cc(OC)c(OC)cc3C2/C(C)=N/NC(N)=S)cc1` (centres undefined), the IC50 is 31 µg/mL (≈ 64.8 µM) in test [1], more than 50 µg/mL in the test on A549, 2.13 µg/mL (≈ 4.45 µM) in the test with MOLT-3 and 10.5 µg/mL (≈ 21.9 µM) in the test with HepG2.

Take `COc1ccc(S(=O)(=O)N2CCc3cc(OC)c(OC)cc3C2/C(=N/NC(N)=S)c2ccccc2)cc1` (centres undefined): the concentration for half-maximal inhibition (IC50) in test [1] was more than 50 µg/mL; in the test with A549 it was more than 50 µg/mL; in the test with MOLT-3 it was 10.4 µg/mL (≈ 19.3 µM); in the test on HepG2 it was more than 50 µg/mL.

On to `COc1cc2c(cc1OC)C(/C(C)=N/NC(N)=S)N(S(=O)(=O)c1ccc([N+](=O)[O-])cc1)CC2` (centres undefined), for which the 50% inhibitory concentration (IC50) in test [1] was more than 50 µg/mL; in the test on A549 it was more than 50 µg/mL; with MOLT-3 it was 42.3 µg/mL (≈ 85.7 µM); in the test with HepG2, more than 50 µg/mL.

For `COc1ccc(S(=O)(=O)N2CCc3ccccc3C2/C(C)=N/NC(N)=S)cc1` (centres undefined), the IC50 in test [1] is more than 50 µg/mL; in the test on A549, more than 50 µg/mL; in the test on MOLT-3, 15.6 µg/mL (≈ 37.2 µM); in the test on HepG2 it was 33.5 µg/mL (≈ 80 µM).

In the case of `COc1cc([C@@H]2c3cc4c(cc3[C@@H](O[C@@H]3O[C@@H]5CO[C@@H](C)O[C@H]5[C@H](O)[C@H]3O)[C@H]3COC(=O)[C@H]23)OCO4)cc(OC)c1O` [ETOPOSIDE], the half-inhibitory concentration (IC50) was 0.024 µg/mL (≈ 0.0408 µM) in the test with MOLT-3 and 16 µg/mL (≈ 27.2 µM) in the test on HepG2.

As for `COc1cc2c(cc1OC)C(/C(C)=N/NC(N)=S)N(S(=O)(=O)c1ccc(C)cc1)CC2` (centres undefined), the IC50 (in test [1]; with A549; in the test with MOLT-3; in the test on HepG2) was more than 50 µg/mL each time.

Take `Cc1ccc(S(=O)(=O)N2CCc3ccccc3C2/C(=N/NC(N)=S)c2ccccc2)cc1` (centres undefined): the IC50 was more than 50 µg/mL in test [1], more than 50 µg/mL with A549, 7.85 µg/mL (≈ 16.9 µM) with MOLT-3 and more than 50 µg/mL in the test with HepG2.

As to `COc1cccc2c1C(=O)c1c(O)c3c(c(O)c1C2=O)C[C@@](O)(C(=O)CO)C[C@@H]3O[C@H]1C[C@H](N)[C@H](O)[C@H](C)O1` [DOXORUBICIN], the IC50 in test [1] was 0.35 µg/mL (≈ 0.644 µM); in the test on A549 it was 0.38 µg/mL (≈ 0.699 µM); in the test with HepG2, 0.23 µg/mL (≈ 0.423 µM).

`NC(=S)N/N=C(\c1ccccc1)C1c2ccccc2CCN1S(=O)(=O)c1ccc([N+](=O)[O-])cc1` (centres undefined): the IC50 in test [1] was more than 50 µg/mL; in the test with A549 it was more than 50 µg/mL; in the test on MOLT-3, 11.3 µg/mL (≈ 22.7 µM); in the test on HepG2 it was more than 50 µg/mL.

In the case of `NC(=S)N/N=C(/c1ccccc1)c1nccc2ccccc12`, the IC50 in test [1] came to 35 µg/mL (≈ 114 µM); with A549, 30 µg/mL (≈ 97.9 µM); with MOLT-3 it was 0.72 µg/mL (≈ 2.35 µM); in the test on HepG2, 16 µg/mL (≈ 52.2 µM).
